Results as given in patent US9255072B2, “Pyrazole compounds and thiazole compounds as protein kinases inhibitors” (National Health Rsearch Institutes, priority 2011, dated 2016).
Like-named read-outs stand apart in the source and are kept apart here.

Target: T1, Aurora A (Homo sapiens, UniProt O14965)
T1 construct: GST-Aurora A (residues S123-S401); GST (N); made in house; host or cells: Sf9 insect cells
T1 sequence (O14965 123-401): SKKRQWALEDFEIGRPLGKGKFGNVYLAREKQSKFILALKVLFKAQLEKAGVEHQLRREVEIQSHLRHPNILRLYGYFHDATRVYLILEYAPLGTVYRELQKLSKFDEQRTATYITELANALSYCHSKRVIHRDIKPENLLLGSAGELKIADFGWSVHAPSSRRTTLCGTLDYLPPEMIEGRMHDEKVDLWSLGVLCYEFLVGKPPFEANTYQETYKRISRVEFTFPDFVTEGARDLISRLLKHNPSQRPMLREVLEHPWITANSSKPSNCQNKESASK
Assay: Aurora kinase A Kinase-Glo kinase assay
Assay type: biochemical
Experimental: The recombinant GST-Aurora A (residues S123-S401) containing kinase domain were expressed in Sf9 insect cells. The kinase assay were carried out in 96-well plates with tested compound in a final volume of 50 μl reaction at 37° C. for 90 minutes with following components: 50 mM Tris-HCl pH 7.4, 10 mM NaCl, 10 mM MgCl2, 0.01% BSA, 5 μM ATP, 1 mM DTT and 15 μM tetra(LRRASLG) peptide, and 150 ng recombinant Aurora A. Following incubation, 50 μl Kinase-Glo Plus Reagent (Promega, Madison, Wis., USA) was added to each well and the mixture was incubated at 25° C. for 20 min. A 70-μL aliquot of each reaction mixture was transferred to a black microtiter plate and the luminescence was measured on Wallac Vector 1420 multilabel counter (PerkinElmer, Shelton, Conn., USA).

[1] = Aurora A assay, 5 μM ATP, bound in nM, read-out: IC50
[2] = Aurora A assay, 5 μM ATP, bound in μM, read-out: IC50
[3] = table of representative values, read-out: IC50 (nM) Aurora A

Row | IC50 [1] | IC50 [2] | IC50 [3] | SMILES
1 | < 200 nM | < 1000 nM | 38 nM | CCc1cc(NC(=O)Nc2ccc(-c3cnc(Nc4cc(N5CCC(N)C5)nc(C)n4)s3)cc2)no1 (stereo not drawn) [Compound 119, N-[4-(2-[6-(3-aminotetrahydro-1H-1-pyrrolyl)-2-methyl-4-pyrimidinyl]amino-1,3-thiazol-5-yl)phenyl]N′-(5-ethyl-3-isoxazolyl)urea]
2 | < 200 nM | < 1000 nM | 32 nM | CCc1cc(NC(=O)Nc2ccc(-c3cnc(Nc4cc(N5CCN(CC)CC5)nc(C)n4)s3)cc2)no1 [Compound 112, N-(5-ethyl-3-isoxazolyl)-N′-[4-(2-[6-(4-ethylpiperazino)-2-methyl-4-pyrimidinyl]amino-1,3-thiazol-5-yl)phenyl]urea]
